In the test the test system is P300/CBP. Description: P300/CBP cellular protein degradation. Type of test: cell-based. The method, then: Cultured cells were washed with cold PBS once and lysed in cold RIPA buffer supplemented with protease inhibitors and phosphatase inhibitors (Beyotime Biotechnology). The solutions were then incubated at 4° C. for 30 min with gentle agitation to fully lysed cells. Cell lysates were centrifuged at 13,000 rpm for 10 min at 4° C. and pellets were discarded. Total protein concentrations in the lysates were determined following BCA assays (Beyotime Biotechnology). Cell lysates were mixed with Laemmli loading buffer and heated at 99° C. for 5 min. Proteins were resolved on SDS-PAGE and visualized using Western ECL Substrate kits on a ChemiDoc MP Imaging system (Bio-Rad). Protein bands were quantitated using the Image Lab software provided by Bio-Rad.

Take `CC(=O)N1CCc2c(c(N3CCCc4cc(-c5cnn(C)c5)c(C(F)F)cc43)nn2C2CCN(CC(=O)NCCCCCCCC(=O)Nc3ccccc3C(=O)Nc3nc(C)c([N+](=O)[O-])s3)CC2)C1` [CPD-215, 2-(8-(2-(4-(5-Acetyl-3-(7-(difluoromethyl)-6-(1-methyl-1H-pyrazol-4-yl)-3,4-dihydroquinolin-1(2H)-yl)-4,5,6,7-tetrahydro-1H-pyrazolo[4,3-c]pyridin-1-yl)piperidin-1-yl)acetamido)octanamido)-N-(4-methyl-5-nitrothiazol-2-yl)benzamide]: the “P300/CBP Degradation (100 nM)” value was “D (degradation activity < 30%)”.
To `CC(=O)N1CCc2c(c(N3CCCc4cc(-c5cnn(C)c5)c(C(F)F)cc43)nn2C2CCN(C(=O)CCCCCC(=O)Nc3ccccc3C(=O)Nc3nc(C)c([N+](=O)[O-])s3)CC2)C1` [CPD-202, 2-(7-(4-(5-Acetyl-3-(7-(difluoromethyl)-6-(1-methyl-1H-pyrazol-4-yl)-3,4-dihydroquinolin-1(2H)-yl)-4,5,6,7-tetrahydro-1H-pyrazolo[4,3-c]pyridin-1-yl)piperidin-1-yl)-7-oxoheptanamido)-N-(4-methyl-5-nitrothiazol-2-yl)benzamide] belongs “D (degradation activity < 30%)”.
For `CC(=O)N1CCc2c(c(N3CCCc4cc(-c5cnn(C)c5)c(C(F)F)cc43)nn2C2CCN(CC(=O)NCCCCCCCCNc3ccc(C(=O)Nc4ncc(C)s4)c(C)c3)CC2)C1` [CPD-195, 4-((8-(2-(4-(5-Acetyl-3-(7-(difluoromethyl)-6-(1-methyl-1H-pyrazol-4-yl)-3,4-dihydroquinolin-1(2H)-yl)-4,5,6,7-tetrahydro-1H-pyrazolo[4,3-c]pyridin-1-yl)piperidin-1-yl)acetamido)octyl)amino)-2-methyl-N-(5-methylthiazol-2-yl)benzamide], the “P300/CBP Degradation (100 nM)” value is “D (degradation activity < 30%)”.
For `CC(=O)N1CCc2c(c(N3CCCc4cc(-c5cnn(C)c5)c(C(F)F)cc43)nn2C2CCN(CC(=O)NCCNc3ccc(C(=O)Nc4ncc(C)s4)c(C)c3)CC2)C1` [CPD-189, 4-((2-(2-(4-(5-Acetyl-3-(7-(difluoromethyl)-6-(1-methyl-1H-pyrazol-4-yl)-3,4-dihydroquinolin-1(2H)-yl)-4,5,6,7-tetrahydro-1H-pyrazolo[4,3-c]pyridin-1-yl)piperidin-1-yl)acetamido)ethyl)amino)-2-methyl-N-(5-methylthiazol-2-yl)benzamide], the “P300/CBP Degradation (100 nM)” value is on record as “D (degradation activity < 30%)”.
`CC(=O)N1CCc2c(c(N3CCCc4cc(-c5cnn(C)c5)c(C(F)F)cc43)nn2C2CCN(CC(=O)NCCCCCCC(=O)Nc3ccccc3C(=O)Nc3nc(C)c([N+](=O)[O-])s3)CC2)C1` [CPD-214, 2-(7-(2-(4-(5-Acetyl-3-(7-(difluoromethyl)-6-(1-methyl-1H-pyrazol-4-yl)-3,4-dihydroquinolin-1(2H)-yl)-4,5,6,7-tetrahydro-1H-pyrazolo[4,3-c]pyridin-1-yl)piperidin-1-yl)acetamido)heptanamido)-N-(4-methyl-5-nitrothiazol-2-yl)benzamide]: the “P300/CBP Degradation (100 nM)” value is given as “D (degradation activity < 30%)”.
For the compound `CC(=O)N1CCc2c(c(N3CCCc4cc(-c5cnn(C)c5)c(C(F)F)cc43)nn2C2CCN(CC(=O)NCCCC(=O)Nc3ccccc3C(=O)Nc3nc(C)c([N+](=O)[O-])s3)CC2)C1` [CPD-211, 2-(4-(2-(4-(5-Acetyl-3-(7-(difluoromethyl)-6-(1-methyl-1H-pyrazol-4-yl)-3,4-dihydroquinolin-1(2H)-yl)-4,5,6,7-tetrahydro-1H-pyrazolo[4,3-c]pyridin-1-yl)piperidin-1-yl)acetamido)butanamido)-N-(4-methyl-5-nitrothiazol-2-yl)benzamide], the “P300/CBP Degradation (100 nM)” value is recorded as “D (degradation activity < 30%)”.

These data come from US20250235543A1, “MODIFIED PROTEINS AND PROTEIN DEGRADERS” (Cullgen (Shanghai), Inc., priority 2021, published 2025).
